In ChEMBL document CHEMBL3872220, “Amphiphilic xanthones as a potent chemical entity of anti-mycobacterial agents with membrane-targeting properties” (Eur J Med Chem, 2016):
In brackets after ≈: the same amount, converted by molar mass.

Legend:
[1] = Hemolytic activity against New Zealand white rabbit RBC assessed as hemoglobin release measured after 1 hr; assay type: ADME, cell-based, Oryctolagus cuniculus, Erythrocyte; conditions: red blood cells
[2] = tested on: Mycolicibacterium smegmatis; test: Antimycobacterial activity against Mycobacterium smegmatis MC2 155 after 24 hrs by broth dilution assay; assay type: functional; conditions: str. MC2 155, 24 h
[3] = tested on: Mycolicibacterium smegmatis; test: Antimycobacterial activity against Mycobacterium smegmatis MC2 155 assessed as inhibition of respiratory ATP synthesis by measuring ATP level at 4 times MIC measured after 1 hr by luciferase reporter gene assay (reference value: 90.6%); assay type: functional, str. MC2 155; set-up: scale not given: the % may be the effect or the level left
[4] = tested on: Mycolicibacterium smegmatis; test: Antimycobacterial activity against Mycobacterium smegmatis MC2 155 assessed as inhibition of respiratory ATP synthesis by measuring ATP level at 2 times MIC measured after 3 hrs by luciferase reporter gene assay (reference value: 158.3%); assay type: functional, str. MC2 155; set-up: scale not given: the % may be the effect or the level left
[5] = tested on: Mycolicibacterium smegmatis; test: Antimycobacterial activity against Mycobacterium smegmatis MC2 155 assessed as inhibition of respiratory ATP synthesis by measuring ATP level at 4 times MIC measured after 6 hrs by luciferase reporter gene assay (reference value: 152%); assay type: functional, str. MC2 155; set-up: scale not given: the % may be the effect or the level left
[6] = tested on: Mycolicibacterium smegmatis; test: Antimycobacterial activity against Mycobacterium smegmatis MC2 155 assessed as inhibition of respiratory ATP synthesis by measuring ATP level at 4 times MIC measured after 6 hrs by luciferase reporter gene assay (reference value: 212.7%); assay type: functional, str. MC2 155; set-up: scale not given: the % may be the effect or the level left
[7] = Cytotoxicity against human corneal fibroblasts assessed as reduction in ATP level measured after 4 hrs by Celltiter-Glo luminescent assay; assay type: toxicity, Corneal fibroblast
[8] = Cytotoxicity against human corneal fibroblasts assessed as increase in LDH level measured after 4 hrs by Cytotox-one […] assay; assay type: toxicity, Corneal fibroblast
[9] = Drug metabolism in rat liver microsomes at 1 uM preincubated for 5 mins followed by NADPH addition measured up to 30 mins by LC-MS/MS method; assay type: ADME; conditions: read-out: Drug metabolism
[10] = Half life in rat liver microsomes at 1 uM preincubated for 5 mins followed by NADPH addition measured by LC-MS/MS method; assay type: ADME
[11] = biological target: CYP3A4 (Homo sapiens, UniProt P08684); test: Inhibition of CYP3A4 in human liver microsomes at 10 uM using midazolam as substrate preincubated for 5 min followed by NADPH addition measured after 10 mins by LC-MS/MS method relative to control; assay type: ADME; conditions: probe midazolam
CYP3A4, sequence (P08684 whole entry): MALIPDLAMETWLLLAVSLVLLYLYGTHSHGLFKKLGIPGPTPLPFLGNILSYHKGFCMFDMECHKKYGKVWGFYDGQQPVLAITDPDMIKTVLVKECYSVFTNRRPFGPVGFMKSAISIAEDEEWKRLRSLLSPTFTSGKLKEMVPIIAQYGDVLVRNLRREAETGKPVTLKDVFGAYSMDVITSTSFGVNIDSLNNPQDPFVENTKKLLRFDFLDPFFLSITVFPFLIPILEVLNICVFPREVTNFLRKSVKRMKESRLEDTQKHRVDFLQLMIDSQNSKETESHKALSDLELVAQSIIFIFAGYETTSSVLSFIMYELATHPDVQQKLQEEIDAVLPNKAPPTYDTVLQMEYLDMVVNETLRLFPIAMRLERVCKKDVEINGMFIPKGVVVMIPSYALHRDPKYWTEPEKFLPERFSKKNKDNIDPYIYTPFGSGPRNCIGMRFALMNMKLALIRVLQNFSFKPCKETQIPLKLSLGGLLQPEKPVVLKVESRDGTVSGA

[12] = biological target: CYP2D6 (Homo sapiens, UniProt P10635); test: Inhibition of CYP2D6 in human liver microsomes at 10 uM using bufuralol as substrate preincubated for 5 min followed by NADPH addition measured after 10 mins by LC-MS/MS method relative to control; assay type: ADME; conditions: probe bufuralol
CYP2D6, sequence (P10635 whole entry): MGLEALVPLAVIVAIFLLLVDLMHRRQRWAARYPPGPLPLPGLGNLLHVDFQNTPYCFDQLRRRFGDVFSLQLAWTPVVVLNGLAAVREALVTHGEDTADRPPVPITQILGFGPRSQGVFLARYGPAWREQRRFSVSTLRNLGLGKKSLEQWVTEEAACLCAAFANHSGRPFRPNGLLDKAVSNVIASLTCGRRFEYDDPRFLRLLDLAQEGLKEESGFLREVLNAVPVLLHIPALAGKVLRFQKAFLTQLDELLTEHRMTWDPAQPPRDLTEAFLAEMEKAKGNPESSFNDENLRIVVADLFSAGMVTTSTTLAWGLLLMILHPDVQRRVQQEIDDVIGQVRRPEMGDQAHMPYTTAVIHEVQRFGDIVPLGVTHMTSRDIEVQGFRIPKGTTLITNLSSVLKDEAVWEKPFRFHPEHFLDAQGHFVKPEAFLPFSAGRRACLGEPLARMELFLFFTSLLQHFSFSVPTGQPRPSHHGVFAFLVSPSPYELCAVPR

[13] = biological target: CYP2C19 (Homo sapiens, UniProt P33261); test: Inhibition of CYP2C19 in human liver microsomes at 10 uM using omeprazole as substrate preincubated for 5 min followed by NADPH addition measured after 10 mins by LC-MS/MS method relative to control; assay type: ADME; conditions: probe omeprazole
CYP2C19, sequence (P33261 whole entry): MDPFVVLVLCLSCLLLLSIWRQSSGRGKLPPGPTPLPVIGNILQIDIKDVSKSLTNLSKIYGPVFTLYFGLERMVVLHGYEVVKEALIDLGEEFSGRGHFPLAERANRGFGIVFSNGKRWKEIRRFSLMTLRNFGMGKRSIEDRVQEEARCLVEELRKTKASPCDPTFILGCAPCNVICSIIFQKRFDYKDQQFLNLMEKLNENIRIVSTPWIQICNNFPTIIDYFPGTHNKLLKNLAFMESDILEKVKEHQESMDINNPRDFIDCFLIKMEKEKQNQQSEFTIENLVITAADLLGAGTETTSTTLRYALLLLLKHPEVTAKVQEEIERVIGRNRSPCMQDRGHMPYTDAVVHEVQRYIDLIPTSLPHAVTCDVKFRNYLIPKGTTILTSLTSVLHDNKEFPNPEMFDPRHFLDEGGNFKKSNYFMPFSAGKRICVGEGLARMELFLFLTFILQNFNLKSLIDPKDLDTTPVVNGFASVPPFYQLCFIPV

[14] = tested on: Staphylococcus aureus; test: Antibacterial activity against methicillin-resistant Staphylococcus aureus isolate DM21455; assay type: functional
[15] = tested on: Staphylococcus aureus; test: Antibacterial activity against Staphylococcus aureus isolate DM4001; assay type: functional
[16] = Selectivity index, ratio of CC50 for human corneal fibroblasts assessed as reduction in ATP level to MIC90 for Mycobacterium smegmatis MC2 155
[17] = Selectivity index, ratio of CC50 for human corneal fibroblasts assessed as reduction in ATP level to MIC90 for Mycobacterium bovis BCG ATCC 35734

Structure (SMILES): COc1c(OCCCCN2CCSCC2)cc2oc3cc(OCCCCN4CCSCC4)c(CC=C(C)C)c(O)c3c(=O)c2c1CC=C(C)C
- HC50 at 1 h [1]: > 276 µM
- MIC90 [2]: > 30 µM

Structure (SMILES): COc1c(OCC(O)CNC(CO)(CO)CO)cc2oc3cc(OCC(O)CNC(CO)(CO)CO)c(CC=C(C)C)c(O)c3c(=O)c2c1CC=C(C)C (stereo not given)
- HC50 at 1 h [1]: 33.2 µM
- MIC90 [2]: 26 µM (≈ 19.9 µg/mL)

Structure (SMILES): CN[C@@H]1[C@H](O[C@H]2[C@H](O[C@H]3[C@H](O)[C@@H](O)[C@H](N=C(N)N)[C@@H](O)[C@@H]3N=C(N)N)O[C@@H](C)[C@]2(O)C=O)O[C@@H](CO)[C@H](O)[C@H]1O [STREPTOMYCIN]
- MIC90 [2]: 0.625 µM (≈ 0.363 µg/mL)
- Activity [3]: 114.4%
- Activity [4]: 75.7%
- Activity [5]: 59.9%
- Activity [6]: 75.7%

Structure (SMILES): CCN(CC)CC(O)COc1cc2oc3cc(OCC(O)CN(CC)CC)c(OC)c(CC=C(C)C)c3c(=O)c2c(O)c1CC=C(C)C (stereo not given)
- HC50 at 1 h [1]: 108 µM
- MIC90 [2]: 6.4 µM (≈ 4.28 µg/mL)

Structure (SMILES): COc1c(OCC(=O)NC(CCCNC(=N)N)C(N)=O)cc2oc3cc(OCC(=O)NC(CCCNC(=N)N)C(N)=O)c(CC=C(C)C)c(O)c3c(=O)c2c1CC=C(C)C (stereo not given)
- HC50 at 1 h [1]: 183 µM
- MIC90 [2]: > 30 µM
- CC50 at 4 h [7]: 60.1 µM
- CC50 at 4 h [8]: 119 µM
- metabolised at 0.5 h, 1 µM [9]: 14.4%
- half-life at 1 µM [10]: > 30 min
- inhibition at 10 min, 10 µM [11]: 42%
- inhibition at 10 min, 10 µM [12]: 2%
- inhibition at 10 min, 10 µM [13]: 3%

Structure (SMILES): COc1c(OCCCCN2CCOCC2)cc2oc3cc(OCCCCN4CCOCC4)c(CC=C(C)C)c(OCCCCN4CCOCC4)c3c(=O)c2c1CC=C(C)C
- HC50 at 1 h [1]: > 240 µM
- MIC90 [2]: > 30 µM

Structure (SMILES): COc1c(OCC(O)CNCCNC(=N)N)cc2oc3cc(OCC(O)CNCCNC(=N)N)c(CC=C(C)C)c(O)c3c(=O)c2c1CC=C(C)C (stereo not given)
- HC50 at 1 h [1]: 141 µM
- MIC90 [2]: > 30 µM
- MIC [14]: 5 µM (≈ 3.63 µg/mL)
- MIC [15]: 5 µM (≈ 3.63 µg/mL)

Structure (SMILES): CCCCN(CC)CCCCOc1cc2oc3cc(OCCCCN(CC)CCCC)c(OC)c(CC=C(C)C)c3c(=O)c2c(O)c1CC=C(C)C
- HC50 at 1 h [1]: > 277 µM
- MIC90 [2]: > 30 µM

Structure (SMILES): CCN(CC)CCCOc1cc2oc3cc(OCCCN(CC)CC)c(OC)c(CC=C(C)C)c3c(=O)c2c(O)c1CC=C(C)C
- MIC90 [2]: 3.2 µM (≈ 2.04 µg/mL)

Structure (SMILES): CC[C@@H](CO)NCCN[C@@H](CC)CO [ETHAMBUTOL]
- MIC90 [2]: 1.25 µM (≈ 0.255 µg/mL)
- Activity [3]: 113.5%
- Activity [4]: 13.1%
- Activity [5]: 71.3%
- Activity [6]: 79.7%

Structure (SMILES): COc1c(OCCCCN(C)C)cc2oc3cc(OCCCCN(C)C)c(CCC(C)C)c(O)c3c(=O)c2c1CCC(C)C
- MIC90 [2]: 6.4 µM (≈ 3.92 µg/mL)

Structure (SMILES): CO[C@H]1/C=C/O[C@@]2(C)Oc3c(C)c(O)c4c(O)c(c(/C=N/N5CCN(C)CC5)c(O)c4c3C2=O)NC(=O)/C(C)=C\C=C\[C@H](C)[C@H](O)[C@@H](C)[C@@H](O)[C@@H](C)[C@H](OC(C)=O)[C@@H]1C [RIFAMPIN]
- MIC90 [2]: 2.5 µM (≈ 2.06 µg/mL)
- Activity [3]: 123.4%
- Activity [4]: 95.6%
- Activity [5]: 66.5%

Structure (SMILES): CCN(CC)CCCCCCCOc1cc2oc3cc(OCCCCCCCN(CC)CC)c(OC)c(CC=C(C)C)c3c(=O)c2c(O)c1CC=C(C)C
- HC50 at 1 h [1]: 86 µM
- MIC90 [2]: 6.4 µM (≈ 4.79 µg/mL)
- CC50 at 4 h [7]: 95.1 µM
- CC50 at 4 h [8]: > 150 µM
- metabolised at 0.5 h, 1 µM [9]: 13.9%
- half-life at 1 µM [10]: > 30 min
- inhibition at 10 min, 10 µM [11]: 3%
- inhibition at 10 min, 10 µM [12]: 6%
- inhibition at 10 min, 10 µM [13]: 16%
- Selectivity Index [16]: 15 - 40
- Selectivity Index [17]: 15 - 40
